How the values were obtained:
Human NMT1 (HsNMT1) = Human NMT1 (HsNMT1) (Homo sapiens, UniProt P30419); test: biochemical
SU-DHL-10 cells = test: Cell cytotoxicity in SU-DHL-10 cell line (CellTiter-Glo); assay type: cell-based; conditions: Homo sapiens, SU-DHL10; CellTiter-Glo, 48 h; read-out: SU-DHL-10 EC50
Description: Assay (c): Cell Cytotoxicity in SU-DHL-10 Cell Line
Cell Culture: SU-DHL-10 (ATCC CRL-2963) were cultured in RPMI-media (ATCC, 30-2001).
Cultures were maintained by the addition of fresh medium and inoculum of 8.0×10^4 to 2.0×10^5 cells/mL. Subculturing was done when the cell density was between 1.0×10^6 and 2.0×10^6 cells/mL.
Cell seeding: 5000 cells/well were plated in 384-white clear bottom plates (Greiner, 781098) for the assay in 20 μl growth media.
Top dose: 1 mM stocks of each compound was prepared in 100% DMSO and thereafter diluted 333.33 fold in growth media to obtain 3 μM (0.3% DMSO) mid stock of each compound, from which 10 μl was added to assay wells (with 20 μl cells) for a final concentration of 1 μM (0.1% DMSO). For subsequent dose-response: 1 mM stock was diluted 3 fold in DMSO before subjecting to above dilution pattern to obtain final 0.1% DMSO concentration.
Treatment: Cells were incubated with the compounds for 48 h at 37° C. in presence of 5% CO2.
Assay Procedure: The assay plate and its contents were equilibrated at room temperature for approximately 30 minutes. CellTiter-Glo® Reagent was added equal to the volume (1;1) of cell culture medium present in each well. The contents were mixed for 5 minutes on an orbital shaker to induce cell lysis. The plate was allowed to incubate at room temperature for 10 minutes to stabilize luminescent signal. The luminescence was recorded with an integration time of 0.25 seconds in EnVision 2104 Multilabel Plate Reader (Perkin Elmer).
Calculation: % Cytotoxicity was calculated considering 100% cell death in wells treated with 0.1% TritonX.

[1] = molecular target: Plasmodium vivax (Pv) NMT (Plasmodium vivax (strain Salvador I), UniProt A5K1A2); test: biochemical
[2] = tested on: Plasmodium falciparum 3D7; test: SYBR Green assay, Plasmodium falciparum strain 3D7; assay type: cell-based; conditions: P. falciparum strain 3D7, 96 h incubation, read-out: Pf EC50 strain 3D7
Description: Assay (g): SYBR Green Assay
EC50 values for Plasmodium falciparum (Pf) NMT strain 3D7 or NF54 were measured for certain compounds of the invention using an assay utilising SYBR Green dye. The assay for NMT strain 3D7 was carried out as follows:
Synchronous Plasmodium falciparum 3D7 late stage trophozoites at 33-36 h were used. Final parasitemia and haematocrit were between 0.1-0.2% and 2% respectively. Red blood cells used for the assay were centrifuged to remove the buffy coat and washed twice in Roswell Park Memorial Institute (RPMI) Media 1640 so that no white blood cells were present. The culture medium contained RPMI 1640 with 5 g/L Albumax, 0.025 g/L gentamycin and 0.292 g/L L-glutamine.
Sterile 96 well black tissue culture plates (Costar) were used routinely for every assay. […] Chloroquine was used as a standard with ten times reduced concentrations range as above. Two sets of control were used in duplicate wells, one set with no added compound of the invention or standard (positive control) and one with uninfected red blood cells (negative control).
The plates were incubated at 37° C. for 48 h in a gas chamber flushed with 5% CO2, 5% O2 and 90% N2. After 48 h supernatants were taken out from each well and replaced with fresh drug and incubated for a further 48 h in the same manner. At the end of the 96 h incubation, 25 μL of SYBR Green I dye (SYBR Green I nucleic acid gel stain 10,000×, in DMSO from Invitrogen) in lysis buffer (1 μL dye to 1 mL lysis buffer) was added to each well and stored overnight at −20° C. The lysis buffer contained Tris (20 mM, pH 8.0), EDTA (2 mM), Saponin (0.16%) and Triton X-100 (1.6% v/v).
Plates were warmed to room temperature and fluorescence intensity was measured with a FLUOstar Omega Microplate fluorescence reader (BMG Labtech). Values were expressed in relative fluorescence units. Binding of SYBR Green is specific for parasite DNA as mature erythrocytes lack DNA and RNA. Fluorescence intensity unit was converted to percentage (%) of growth as follows:
% growth=(culture under drug)−(uninfected RBC)/(culture with no drug)−(uninfected RBC)×100
and the EC50 value was determined.

Plasmodium vivax (Pv) NMT, sequence (A5K1A2 1-410): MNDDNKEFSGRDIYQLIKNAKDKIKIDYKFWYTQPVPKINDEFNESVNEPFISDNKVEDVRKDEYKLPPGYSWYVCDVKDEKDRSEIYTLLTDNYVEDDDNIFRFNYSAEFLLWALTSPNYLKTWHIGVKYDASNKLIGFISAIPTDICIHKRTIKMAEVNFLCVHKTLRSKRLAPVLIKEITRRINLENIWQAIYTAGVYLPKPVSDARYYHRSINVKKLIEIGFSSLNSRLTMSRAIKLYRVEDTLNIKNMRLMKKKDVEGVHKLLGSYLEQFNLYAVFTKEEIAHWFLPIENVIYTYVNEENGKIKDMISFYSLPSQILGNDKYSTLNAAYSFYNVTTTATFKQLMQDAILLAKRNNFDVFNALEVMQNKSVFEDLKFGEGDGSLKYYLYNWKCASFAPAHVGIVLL
Human NMT1 (HsNMT1), sequence (P30419 whole entry, looked up): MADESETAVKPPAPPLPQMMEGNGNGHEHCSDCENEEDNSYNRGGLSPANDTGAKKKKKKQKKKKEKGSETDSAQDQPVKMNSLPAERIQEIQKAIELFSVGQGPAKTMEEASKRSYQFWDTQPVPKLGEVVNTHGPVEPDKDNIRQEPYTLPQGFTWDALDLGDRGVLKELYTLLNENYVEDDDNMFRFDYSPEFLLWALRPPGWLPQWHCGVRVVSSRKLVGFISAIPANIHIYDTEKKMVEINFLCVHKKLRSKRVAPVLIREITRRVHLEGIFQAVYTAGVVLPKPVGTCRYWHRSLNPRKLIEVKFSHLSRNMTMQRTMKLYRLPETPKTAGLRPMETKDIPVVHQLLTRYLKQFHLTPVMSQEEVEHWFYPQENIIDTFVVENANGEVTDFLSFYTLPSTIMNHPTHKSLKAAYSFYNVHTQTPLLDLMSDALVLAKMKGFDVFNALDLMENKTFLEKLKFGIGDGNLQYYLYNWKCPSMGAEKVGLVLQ

SMILES	IC50 (Human NMT1 (HsNMT1)) [nM]	EC50 (SU-DHL-10 cells) [nM]	IC50 [1] [nM]	EC50 [2] [nM]
CC[C@H]1CNCCN1c1ncc(Cl)c(N2CC(C(=O)NC(C)(C)c3cnc4ccccn34)C2)n1 [Example 147, (S)-1-(5-chloro-2-(2-ethylpiperazin-1-yl)pyrimidin-4-yl)-N-(2-(imidazo[1,2-a]pyridin-3-yl)propan-2-yl)azetidine-3-carboxamide]	2	12	–	–
CN(C(=O)C1CN(c2nc(N3CCNC(C)(C)C3)ncc2Cl)C1)C(C)(C)c1cnc2ccccn12 [Example 127, 1-(5-chloro-2-(3,3-dimethylpiperazin-1-yl)pyrimidin-4-yl)-N-(2-(Imidazo[1,2-a]pyridin-3-yl)propan-2-yl)-N-methylazetidine-3-carboxamide]	–	609	–	–
C[C@@H]1CN(c2ncc(Cl)c(N3CC(C(=O)N(C)C(C)(C)c4cnc5ccccn45)C3)n2)CCN1 [Example 124, (R)-1-(5-chloro-2-(3-methylpiperazin-1-yl)pyrimidin-4-yl)-N-(2-(Imidazo[1,2-a]pyridin-3-yl)propan-2-yl)-N-methylazetidine-3-carboxamide]	–	448	–	–
C[C@H]1CNCCN1c1nc(N2CC(C(=O)N(C)C(C)(C)c3cnc4ccccn34)C2)c2sccc2n1 [Example 125, (S)—N-(2-(imidazo[1,2-a]pyridin-3-yl)propan-2-yl)-N-methyl-1-(2-(2-methylpiperazin-1-yl)thieno[3,2-d]pyrimidin-4-yl)azetidine-3-carboxamide]	–	361	–	–
CN(C(=O)C1CN(c2nc(N3CCCNCC3)ncc2Cl)C1)C(C)(C)c1cnc2ccccn12 [Example 120, 1-(5-chloro-2-(1,4-diazepan-1-yl)pyrimidin-4-yl)-N-(2-(Imidazo[1,2-a]pyridin-3-yl)propan-2-yl)-N-methylazetidine-3-carboxamide]	–	545	–	–
C[C@H]1CNCCN1c1nc(N2CC(C(=O)NC(C)(C)c3cnc4ccccn34)C2)c2sccc2n1 [Example 126, (S)—N-(2-(Imidazo[1,2-a]pyridin-3-yl)propan-2-yl)-1-(2-(2-methylpiperazin-1-yl)thieno[3,2-d]pyrimidin-4-yl)azetidine-3-carboxamide]	5	265	–	–
CN1CCCN(c2nc(N3CC(C(=O)NC(C)(C)c4cnc5ccccn45)C3)c3ccsc3n2)CC1 [Example 113, N-(2-(imidazo[1,2-a]pyridin-3-yl)propan-2-yl)-1-(2-(4-methyl-1,4-diazepan-1-yl)thieno[2,3-d]pyrimidin-4-yl)azetidine-3-carboxamide]	5	33	–	–
CN(C(=O)C1CN(c2nc(N3CCNC4(CC4)C3)ncc2Cl)C1)C(C)(C)c1cnc2ccccn12 [Example 130, 1-(5-chloro-2-(4,7-diazaspiro[2.5]octan-7-yl)pyrimidin-4-yl)-N-(2-(imidazo[1,2-a]pyridin-3-yl)propan-2-yl)-N-methylazetidine-3-carboxamide]	54	547	–	–
CC1NCCN(c2ncc(Cl)c(N3CC(C(=O)NC(C)(C)c4cnc5ccccn45)C3)n2)C1C (centres unmarked) [Example 143, 1-(5-chloro-2-(2,3-dimethylpiperazin-1-yl)pyrimidin-4-yl)-N-(2-(Imidazo[1,2-a]pyridin-3-yl)propan-2-yl)azetidine-3-carboxamide]	3	5	–	–
C[C@H]1CNCCN1c1ncc(C(F)(F)F)c(N2CC(C(=O)N(C)C(C)(C)c3cnc4ccccn34)C2)n1 [Example 135, (S)—N-(2-(imidazo[1,2-a]pyridin-3-yl)propan-2-yl)-N-methyl-1-(2-(2-methylpiperazin-1-yl)-5-(trifluoromethyl)pyrimidin-4-yl)azetidine-3-carboxamide]	27	767	–	–
C[C@H]1CN(c2ncc(Cl)c(N3CC(C(=O)NC(C)(C)c4cnc5ccccn45)C3)n2)[C@@H](C)CN1C [Example 152, 1-(5-chloro-2-((2S,5S)-2,4,5-trimethylpiperazin-1-yl)pyrimidin-4-yl)-N-(2-(imidazo[1,2-a]pyridin-3-yl)propan-2-yl)azetidine-3-carboxamide]	8	306	–	–
CN(C(=O)C1CN(c2nc(N3CC4CCC(C3)N4)ncc2Cl)C1)C(C)(C)c1cnc2ccccn12 [Example 133, 1-(2-(3,8-diazabicyclo[3.2.1]octan-3-yl)-5-chloropyrimidin-4-yl)-N-(2-(imidazo[1,2-a]pyridin-3-yl)propan-2-yl)-N-methylazetidine-3-carboxamide]	62	409	–	–
CCN(C(=O)C1CN(c2nc(N3CCNCC3)ncc2Cl)C1)C(C)(C)c1cnc2ccccn12 [Example 136, 1-(5-chloro-2-(piperazin-1-yl)pyrimidin-4-yl)-N-ethyl-N-(2-(imidazo[1,2-a]pyridin-3-yl)propan-2-yl)azetidine-3-carboxamide]	7	161	–	–
CN(C(=O)C1CN(c2nc(N3CCNC4CC43)ncc2Cl)C1)C(C)(C)c1cnc2ccccn12 (centres unmarked) [Example 146, 1-(2-(2,5-diazabicyclo[4.1.0]heptan-2-yl)-5-chloropyrimidin-4-yl)-N-(2-(imidazo[1,2-a]pyridin-3-yl)propan-2-yl)-N-methylazetidine-3-carboxamide]	61	597	–	–
Cc1cc2c(N3CC(C(=O)NC(C)(C)c4cnc5ccccn45)C3)nc(N3CCCN(C)CC3)nc2s1 [Example 117, N-(2-(imidazo[1,2-a]pyridin-3-yl)propan-2-yl)-1-(6-methyl-2-(4-methyl-1,4-diazepan-1-yl)thieno[2,3-d]pyrimidin-4-yl)azetidine-3-carboxamide]	6	66	–	–
CN(C(=O)C1CN(c2nc(N3CCNCC34CC4)ncc2Cl)C1)C(C)(C)c1cnc2ccccn12 [Example 150, 1-(5-chloro-2-(4,7-diazaspiro[2.5]octan-4-yl)pyrimidin-4-yl)-N-(2-(imidazo[1,2-a]pyridin-3-yl)propan-2-yl)-N-methylazetidine-3-carboxamide]	–	> 1000	–	–
O=C(NCc1cnc2cc(F)ccn12)C1CN(c2nc(N3CCCNCC3)ncc2Cl)C1 [Example 21]	50	–	17	800
CC1CN(c2ncc(F)c(N3CC(C(=O)NC(C)(C)c4cnc5ccccn45)C3)n2)C[C@H](C)N1 (some centres unmarked) [Example 49]	14	–	8.4	57
CN(C(=O)C1CN(c2nc(N3CCNCC3(C)C)ncc2Cl)C1)C(C)(C)c1cnc2ccccn12 [Example 149, 1-(5-chloro-2-(2,2-dimethylpiperazin-1-yl)pyrimidin-4-yl)-N-(2-(Imidazo[1,2-a]pyridin-3-yl)propan-2-yl)-N-methylazetidine-3-carboxamide]	–	145	–	–
C[C@H]1CN(c2ncc(Cl)c(N3CC(C(=O)N(C)C(C)(C)c4cnc5ccccn45)C3)n2)CCN1 [Example 139, (S)-1-(5-chloro-2-(3-methylpiperazin-1-yl)pyrimidin-4-yl)-N-(2-(Imidazo[1,2-a]pyridin-3-yl)propan-2-yl)-N-methylazetidine-3-carboxamide]	–	542	–	–
C[C@H]1CN(c2ncc(F)c(N3CC(C(=O)NC(C)(C)c4cnc5ccccn45)C3)n2)CCN1C [Example 82, 1-{2-[(3S)-3,4-dimethylpiperazin-1-yl]-5-fluoropyrimidin-4-yl}-N-(2-{imidazo[1,2-a]pyridin-3-yl}propan-2-yl)azetidine-3-carboxamide]	100	–	43	94
CN1CCCN(c2nc3c(c(N4CC(C(=O)NC(C)(C)c5cnc6ccccn56)C4)n2)CCC3)CC1 [Example 114, N-(2-(imidazo[1,2-a]pyridin-3-yl)propan-2-yl)-1-(2-(4-methyl-1,4-diazepan-1-yl)-6,7-dihydro-5H-cyclopenta[d]pyrimidin-4-yl)azetidine-3-carboxamide]	–	65	–	–
CN(C(=O)C1CN(c2nc(N3CCNCC3)ncc2Cl)C1)C(C)(C)c1cnc2ccccn12 [Example 119, 1-(5-chloro-2-(piperazin-1-yl)pyrimidin-4-yl)-N-(2-(imidazo[1,2-a]pyridin-3-yl)propan-2-yl)-N-methylazetidine-3-carboxamide]	–	925	–	–
Cc1nc(N2CCCN(C)CC2)nc(N2CC(C(=O)NC(C)(C)c3cnc4ccccn34)C2)c1Cl [Example 115, 1-(5-chloro-6-methyl-2-(4-methyl-1,4-diazepan-1-yl)pyrimidin-4-yl)-N-(2-(imidazo[1,2-a]pyridin-3-yl)propan-2-yl)azetidine-3-carboxamide]	–	54	–	–
C[C@@H]1CN(c2ncc(F)c(N3CC(C)(C(=O)NC(C)(C)c4cnc5ccccn45)C3)n2)CCN1C [Example 87, 1-{2-[(3R)-3,4-dimethylpiperazin-1-yl]-5-fluoropyrimidin-4-yl}-N-(2-{imidazo[1,2-a]pyridin-3-yl}propan-2-yl)-3-methylazetidine-3-carboxamide]	150	–	38	> 760

— patent publication US20240166643A1, “IMIDAZO[1,2-A]PYRIDINE COMPOUNDS AND THEIR USE IN THERAPY” (Imperial College Innovations Limited, priority 2020, published 2024)
